Consider four compounds from ChEMBL document CHEMBL2074126, “A functional assay for quantitation of the apparent affinities of ligands of P-glycoprotein in Caco-2 cells” (Pharm Res, 2001).

In data set [1] the target is T1, ATP-dependent translocase ABCB1 (Homo sapiens, UniProt P08183). The experiment in a line: TP_TRANSPORTER: inhibition of Taxol transepithelial transport (basal to apical) (Taxol: 0.8 uM, Probenecid: 1000 u) in Caco-2 cells. Type of data set: functional, cell-based. (In general: Caco-2 monolayers are a common model of the intestinal barrier.)
For data set [2], the target named is T1, ATP-dependent translocase ABCB1. The experiment in a line: TP_TRANSPORTER: inhibition of Taxol transepithelial transport (basal to apical) in Caco-2 cells. Type of data set: functional, cell-based.

T1 sequence (P08183 whole entry): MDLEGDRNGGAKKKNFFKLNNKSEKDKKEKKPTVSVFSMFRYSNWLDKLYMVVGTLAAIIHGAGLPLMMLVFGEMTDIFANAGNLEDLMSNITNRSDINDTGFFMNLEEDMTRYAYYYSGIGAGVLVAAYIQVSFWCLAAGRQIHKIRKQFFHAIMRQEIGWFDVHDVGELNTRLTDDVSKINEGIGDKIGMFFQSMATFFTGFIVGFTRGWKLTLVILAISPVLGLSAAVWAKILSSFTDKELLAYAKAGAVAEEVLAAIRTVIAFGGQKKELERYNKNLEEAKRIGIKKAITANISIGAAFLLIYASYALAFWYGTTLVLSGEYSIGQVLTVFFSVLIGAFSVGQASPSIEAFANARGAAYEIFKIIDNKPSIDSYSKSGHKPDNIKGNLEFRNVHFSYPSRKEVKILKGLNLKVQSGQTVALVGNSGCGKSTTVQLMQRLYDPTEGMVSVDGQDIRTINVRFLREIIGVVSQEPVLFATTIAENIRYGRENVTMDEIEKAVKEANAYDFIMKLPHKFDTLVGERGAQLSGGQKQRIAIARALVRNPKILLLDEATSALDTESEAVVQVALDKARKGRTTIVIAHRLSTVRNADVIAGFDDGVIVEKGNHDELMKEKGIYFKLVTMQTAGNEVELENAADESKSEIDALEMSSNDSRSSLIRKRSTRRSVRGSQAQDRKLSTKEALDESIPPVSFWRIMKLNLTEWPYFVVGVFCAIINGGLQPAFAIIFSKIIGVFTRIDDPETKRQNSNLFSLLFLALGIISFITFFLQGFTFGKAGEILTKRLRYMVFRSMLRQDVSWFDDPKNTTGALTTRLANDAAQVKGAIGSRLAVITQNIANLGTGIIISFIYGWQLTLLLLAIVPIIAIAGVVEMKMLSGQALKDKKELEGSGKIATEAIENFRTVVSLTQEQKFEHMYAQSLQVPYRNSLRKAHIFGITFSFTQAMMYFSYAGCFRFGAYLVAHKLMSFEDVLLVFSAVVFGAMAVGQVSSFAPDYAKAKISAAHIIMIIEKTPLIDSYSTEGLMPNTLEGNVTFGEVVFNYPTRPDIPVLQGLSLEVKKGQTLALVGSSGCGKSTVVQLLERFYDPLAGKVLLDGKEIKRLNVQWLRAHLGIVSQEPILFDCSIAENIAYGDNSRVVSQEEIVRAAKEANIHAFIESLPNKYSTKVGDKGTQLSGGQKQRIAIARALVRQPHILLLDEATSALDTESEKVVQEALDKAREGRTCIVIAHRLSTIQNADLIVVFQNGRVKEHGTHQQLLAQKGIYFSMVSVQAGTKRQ

Regarding `CCCN(CCC)S(=O)(=O)c1ccc(C(=O)O)cc1` [PROBENECID], the Activity entry in data set [1] was “is not an inhibitor [-]”. One may read the Ki as a dissociation constant, usually derived from enzyme kinetics or from competition with a known ligand. The low end stands for higher affinity, the high end for lower affinity. Compound `CCN(CC)C(=O)Nc1ccc(OCC(O)CNC(C)(C)C)c(C(C)=O)c1` (centres undefined) [CELIPROLOL] displayed a Ki in data set [2] of 313 µM.

Compound `COc1cccc2c1C(=O)c1c(O)c3c(c(O)c1C2=O)C[C@@](O)(C(=O)CO)C[C@@H]3O[C@H]1C[C@H](N)[C@H](O)[C@H](C)O1` [DOXORUBICIN] gave a Ki in data set [2] of 8.5 µM. For `COc1cccc2c1C(=O)c1c(O)c3c(c(O)c1C2=O)C[C@@](O)(C(C)=O)C[C@@H]3O[C@H]1C[C@H](N)[C@H](O)[C@H](C)O1` [DAUNORUBICIN], the affinity in data set [2], expressed as Ki, was 2.5 µM.
